Results on four molecules are retold here after patent US10273246B2, “Methods and compositions of substituted 5H-[1,2,5] oxadiazolo [3′,4′:5,6] pyrazino[2,3-B] indole analogs as inhibitors of β-catenin/T-cell factor protein-protein interactions” (University of Utah Research Foundation, priority 2015, dated 2019).

The test system of one assay is SW480 cells. Put plainly: MTs cell viability assay, SW480. The assay is classed as cell-based, human. As to conditions: Homo sapiens, SW480; MTs cell viability, 72 h; read-out: IC50 ± SD SW480. The procedure: (§1) Colorectal cancer cell lines, SW480, HT29, an HCT116, and human normal cell line HEK293 were seeded in 96-well plates at 4×10^3 cells/well, maintained overnight at 37° C., and incubated with the tested compounds at various concentrations. Cell viability was monitored after 72 h using a freshly prepared mixture of 1 part phenazine methosulfate (PMS, Sigma) solution (0.92 mg/mL) and 19 parts 3-(4,5-dimethylthiazol-2-yl)-5-(3-carboxymethoxyphenyl)-2-(4-sulfophenyl)-2H-tetrazolium (MTs, Promega) solution (2 mg/mL). Cells were incubated in 10 μL of this solution at 37° C. for 3 h, and A490 was measured. […] Experiments were performed in triplicate.

The subject of the next assay is HT29 cells. Put plainly: MTs cell viability assay, HT29. The assay is classed as cell-based. As to conditions: Homo sapiens, HT-29, 72 h, read-out: IC50 ± SD HT29. The procedure:
as §1

The next assay deals with HCT116 cells. Put plainly: MTs cell viability assay, HCT116. To be noted: Homo sapiens, HCT-116; MTs cell viability, 72 h; read-out: IC50 ± SD HCT116. The class given is cell-based, human. The procedure:
as §1

Assay [1] concerns canonical Wnt signaling in colorectal cancer SW480 cells. Put plainly: TOPFlash luciferase reporter assay, SW480. The assay is classed as cell-based. As to conditions: Homo sapiens, SW480, 24 h, read-out: TOPFlash IC50 ± SD SW480. The procedure:
(§2) FuGENE 6 (E2962, Promega) in a 96-well plate format was used for the transfection of HEK293 and SW480 cells according to the manufacturer's instructions. […] SW480 cells were co-transfected with 60 ng of the TOPFlash or FOPFlash reporter gene and 40 ng pCMV-RL normalization reporter. Cells were cultured in DMEM and 10% fatal bovine serum at 37° C. for 24 h, and different concentrations of inhibitors were then added. After 24 h, the luciferase reporter activity was measured using the Dual-Glo system (E2940, Promega). Normalized luciferase activity in response to the treatment with the inhibitors was compared with that obtained from the cells treated with DMSO. Experiments were performed in triplicate.

Assay [2] deals with FOPFlash luciferase (reporter with eight mutant Tcf binding sites). The class given is cell-based, human. The procedure:
as §2

Assay [3] concerns Wnt/β-catenin target genes in SW480 cells.
Procedure: Total RNAs were extracted with TRIzol (Ser. […] The threshold cycle (CT) values were normalized to that of internal reference GAPDH. The primer pairs for human GAPDH were forward: [NT] and reverse: [NT]; for human HPRT forward: [NT] and reverse: [NT]; for human AXIN2 forward: [NT] and reverse: [NT]; for human c-myc forward: [NT] and reverse: [NT]; and for human cyclin D1 forward: [NT] and reverse: [NT]. Experiments were performed in triplicate.
For assay [4], the system named is cyclin D1, c-myc and β-catenin protein expression in SW480 cells. Put plainly: Western blot analysis. The class given is cell-based, human. To be noted: SW480, 24 h. The procedure:
SW480 cells at 1×10^6 cells/mL were treated with different concentrations of 18 for 24 h. Cell were lysed in a buffer containing 50 mM Tris (pH 7.4), 150 mM NaCl, 1% Nonidet P-40, 0.5% sodium deoxycholate, 0.1% SDS, and protease inhibitors. After centrifugation at 12,000 rpm for 20 min at 4° C., the supernatant was loaded onto an 8% SDS polyacrylamide gel for electrophoretic analysis. Separated proteins were transferred onto nitrocellulose membranes for immunoblot analysis. The antibodies against c-myc (D84C12, Cell Signaling), cyclin D1 (sc-853, Santa Cruz Biotechnology, Inc.), and β-tubulin (sc-55529, Santa Cruz Biotechnology, Inc) were used. IRDye 680LT goat anti-mouse IgG (827-11080, LiCOR) or IRDye 800CW goat anti-rabbit IgG (827-08365, LiCOR) was used as the secondary antibody. The images were detected by the Odyssey Infrared Imaging System (LiCOR). The Western blot bands were quantified by LI-COR Image Studio Lite 4.0. Experiments were performed in duplicate.
For orientation: In western blotting, separated proteins are transferred to a membrane and probed.

Assay [5] addresses T1, β-catenin/Tcf PPI in SW480 cells (Homo sapiens, UniProt P35222).
T1 construct: endogenous in cells; host or cells: SW480
T1 sequence (P35222 2-781 limits assumed): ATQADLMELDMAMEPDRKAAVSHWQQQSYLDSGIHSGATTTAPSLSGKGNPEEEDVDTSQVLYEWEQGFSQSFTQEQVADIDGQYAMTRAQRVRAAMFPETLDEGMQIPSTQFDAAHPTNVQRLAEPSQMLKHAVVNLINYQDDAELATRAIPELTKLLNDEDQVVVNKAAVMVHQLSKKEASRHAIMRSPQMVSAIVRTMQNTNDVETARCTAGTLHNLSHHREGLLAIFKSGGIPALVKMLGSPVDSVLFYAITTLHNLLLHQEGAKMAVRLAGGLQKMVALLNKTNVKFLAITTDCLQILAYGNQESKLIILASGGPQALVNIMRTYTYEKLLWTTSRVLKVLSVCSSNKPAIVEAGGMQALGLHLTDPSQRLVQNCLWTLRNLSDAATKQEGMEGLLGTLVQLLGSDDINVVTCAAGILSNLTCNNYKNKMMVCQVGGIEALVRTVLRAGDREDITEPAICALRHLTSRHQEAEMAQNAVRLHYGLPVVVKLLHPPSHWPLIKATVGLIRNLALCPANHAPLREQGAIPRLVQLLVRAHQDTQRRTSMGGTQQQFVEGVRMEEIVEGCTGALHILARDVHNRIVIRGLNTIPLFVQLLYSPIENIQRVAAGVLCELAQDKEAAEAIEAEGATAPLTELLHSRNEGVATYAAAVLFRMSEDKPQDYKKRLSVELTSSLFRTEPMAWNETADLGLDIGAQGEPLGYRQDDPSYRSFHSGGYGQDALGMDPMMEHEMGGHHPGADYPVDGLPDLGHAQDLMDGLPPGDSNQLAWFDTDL
Kind of assay: Coimmunoprecipitation assay. The assay is classed as cell-based. As to conditions: SW480, 24 h. The procedure:
SW480 cells at 1×10^6/mL were treated with different concentrations of 18 for 24 h. Cells were lysed in buffer containing 50 mM Tris, pH 7.4, 150 mM NaCl, 1% Nonidet P-40, 2 mM EDTA, and protease inhibitors. The lysates were preabsorbed to A/G plus agarose (sc-2003, Santa Cruz Biotechnology, Inc.) at 4° C. for 1 h. Preadsorbed lysates were incubated with a specific primary antibody overnight at 4° C. A/G plus agarose was then added to the lysates mixture and incubated for 3 h. The beads were washed 5 times with the lysis buffer at 4° C. The bound protein was eluted by boiling in the SDS sample buffer and loaded onto 8% SDS polyacrylamide gel for electrophoretic analysis. Separated proteins were transferred onto nitrocellulose membranes for immunoblot analysis. The primary antibodies were against fl-catenin (610153, BD Biosciences) and Tcf4 (05-511, Millipore). IRDye 680LT goat anti-mouse IgG (827-11080, LiCOR) was used as the secondary antibody. The images were detected by the Odyssey Infrared Imaging System (LiCOR). Experiments were performed in duplicate.

The target of the next assay is T2, β-catenin/APC-R3 (Homo sapiens, UniProt P35222).
T2 construct: Wild-type β-catenin and its mutants (residues 138-686) were cloned; 6xHis; made in house; host or cells: E. coli BL21 DE3
T2 sequence (P35222 138-686): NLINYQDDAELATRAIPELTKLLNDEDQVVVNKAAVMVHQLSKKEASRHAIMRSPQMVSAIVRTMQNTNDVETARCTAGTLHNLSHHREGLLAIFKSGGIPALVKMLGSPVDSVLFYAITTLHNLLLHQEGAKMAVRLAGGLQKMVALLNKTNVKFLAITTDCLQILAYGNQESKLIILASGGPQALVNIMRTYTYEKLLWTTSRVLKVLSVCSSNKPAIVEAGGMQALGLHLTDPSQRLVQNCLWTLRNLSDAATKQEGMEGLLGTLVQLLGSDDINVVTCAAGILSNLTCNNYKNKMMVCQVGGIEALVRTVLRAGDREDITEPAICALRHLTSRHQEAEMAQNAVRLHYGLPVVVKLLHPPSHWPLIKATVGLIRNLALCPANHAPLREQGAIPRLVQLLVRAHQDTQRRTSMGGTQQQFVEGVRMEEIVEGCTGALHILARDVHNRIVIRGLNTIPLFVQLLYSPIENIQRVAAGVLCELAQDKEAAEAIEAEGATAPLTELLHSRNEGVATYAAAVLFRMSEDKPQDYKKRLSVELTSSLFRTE
To be noted: FP selectivity assay, known inhibitors, footnotes a, b; read-out: Ki ± SD β-catenin/APC-R3; cited from earlier work.

A further assay addresses T3, β-catenin/Tcf4 (Homo sapiens, UniProt P35222).
T3 sequence (P35222 138-686): T2 sequence (P35222 138-686)
As to conditions: FP selectivity assay, known inhibitors, footnotes a, b; read-out: Ki ± SD β-catenin/Tcf4; cited from earlier work.

A further assay has as its target T4, β-catenin/E-cadherin (Homo sapiens, UniProt P35222).
T4 construct: Wild-type β-catenin and its mutants (residues 138-686) were cloned; 6xHis; made in house; host or cells: E. coli BL21 DE3
T4 sequence (P35222 138-686): T2 sequence (P35222 138-686)
As to conditions: FP selectivity assay, known inhibitors, footnotes a, b; read-out: Ki ± SD β-catenin/E-cadherin; cited from earlier work.

Assay [6] has as its target T5, β-catenin/Tcf4 PPI (Homo sapiens, UniProt P35222).
T5 sequence (P35222 138-686): T2 sequence (P35222 138-686)
As to conditions: Table 3, known inhibitors, footnotes a, b; read-out: Ki + SD FP; cited from earlier work.

For assay [7], the target named is T5, β-catenin/Tcf4 PPI. Kind of assay: biochemical.
Source text: (§3) After β-catenin and fluorescein-Tcf4 form a protein-protein complex, the fluorophore is attached to a high-molecular-weight protein complex (≥60 kDa) and has a low rotational speed when it is excited by plane-polarized light. […] When an inhibitor completely disrupts the β-catenin/fluorescein-Tcf4 PPI, the fluorophore is only attached to Tcf4 (≤6 kDa), and the emitted light after excitation will be largely depolarized due to a high rotational speed of the fluorophore. AlphaScreen is a bead-based assay. […] On laser excitation at 680 nm, the photo sensitizers inside the donor beads convert ambient oxygen to a singlet oxygen state. Only when the donor and acceptor beads are brought within 200 nm can the singlet oxygen molecules diffuse to the acceptor beads, resulting in extensive emission at 570 nm.
The target of assay [8] is T5, β-catenin/Tcf4 PPI. To be noted: read-out: Ki ± SD FP; Table 8, resynthesized 18 and derivatives.
Source text: as §3

As usually defined, the IC50 is the midpoint of a concentration-inhibition curve.

Where two headings read alike, the source gives them in different places.

On to `COc1ccc(/C=C2\SC(=S)N(CCCC(=O)O)C2=O)cc1OC` [Compound 9, reference compound], for which the IC50 in the assay on SW480 cells was 240 ± 2.5 µM; in the assay with HT29 cells, 290 ± 2.4 µM; in the assay with HCT116 cells it was 180 ± 2.9 µM; in assay [1], 4 ± 0.39 µM. In addition, the “FOPFlash luciferase reporter activity” value in [2] (reference inhibitors) is listed as “inhibited”.
For the molecule `Nc1nonc1C(=O)N/N=C1/c2ccccc2-c2nc3nonc3nc21` [Compound 18, (Z)-4-Amino-N′-(9H-Indeno[1,2-B][1,2,5]Oxadiazolo[3,4-E]Pyrazin-9-ylidene)-1,2,5-Oxadiazole-3-Carbohydrazide], the mRNA expression inhibited result in assay [3] (AXIN2, cyclin D1, c-myc, dose of 2 μM, SW480, 24 h) is given as “More than 50%”. The “expression of house-keeping gene HPRT” value in assay [3] (SW480) is recorded as “did not affect”. Also, the “expression of AXIN2, cyclin D1, and c-myc (mRNA)” value in assay [3] (SW480, dose-dependent) was “down-regulated”. Further, in assay [4], the “expression level of β-catenin” value was “did not reduce”; the “expression of proteins cyclin D1 and c-myc” value was “significantly reduced”. In assay [5], the “β-catenin/Tcf PPI in a cellular context” value is on record as “inhibits the β-catenin/Tcf PPI in a dose-dependent manner”. Moreover, the “concentrations at which FOPFlash luciferase activity was inhibited” value in assay [2] (HEK293 and SW480 (FIG. 7), off-target effects) is at least 5 µM.
With `COC1=C(CC(C)OC(=O)Oc2ccc(O)cc2)C2c3c(c(O)cc(OC)c3-c3c(OC)cc(O)c4c3C2C(CC(C)OC(=O)c2ccccc2)=C(OC)C4=O)C1=O` (stereo not drawn) [Compound 1], the Ki at β-catenin/APC-R3 is 110 ± 0.58 µM; at β-catenin/Tcf4 it was 77 ± 9.3 µM; at β-catenin/E-cadherin, 38 ± 1.6 µM; on β-catenin/Tcf4 PPI [6] it was 18 ± 2.1 µM.
Consider `N#CCn1c2ccccc2c2nc3nonc3nc21` [Compound 34, 2-(5H-[1,2,5]Oxadiazolo[3′,4′:5,6]Pyrazino[2,3-B]Indol-5-yl)Acetonitrile], for which the Ki is above 130 µM at β-catenin/Tcf4 PPI [7] and 240 ± 14 µM at β-catenin/Tcf4 PPI [8].
